#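 Test compounds were applied to cells in 96-well plates for 48 hours at 5 doses. GI50 marks 50% less growth. At the TGI there is no net growth.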
# Assays:
# Assay in all cases: inhibition of tumour cell growth, NCI panel, 48 h
# [1] = system: UACC-257 melanoma
# [2] = system: M14 melanoma
# [3] = system: U251 CNS
# [4] = system: SK-MEL-5 melanoma
# [5] = system: IGROV1 ovarian
# [6] = system: 786-0 renal
# [7] = system: NCI/ADR-RES ovarian
# [8] = system: T-47D breast
# [9] = system: HS 578T breast
# [10] = system: CCRF-CEM leukemia
# [11] = system: HCT-116 colon
# [12] = system: HCT-15 colon
# [13] = system: UACC-62 melanoma
# [14] = system: HOP-92 NSCLC
# [15] = system: ACHN renal
# [16] = system: SNB-75 CNS
# [17] = system: MDA-MB-231 breast
# [18] = system: NCI-H522 lung
# [19] = system: RPMI-8226 leukemia
# [20] = system: HCC-2998 colon
# [21] = system: MOLT-4 leukemia
# [22] = system: MCF7 breast
# [23] = system: EKVX NSCLC
# [24] = system: TK-10 renal
# [25] = system: A549 NSCLC
# [26] = system: OVCAR-8 ovarian
# [27] = system: NCI-H226 lung
# [28] = system: SK-MEL-28 melanoma
# [29] = system: MALME-3M melanoma
# [30] = system: SK-OV-3 ovarian
# [31] = system: K-562 leukemia
# [32] = system: SNB-19 CNS
# [33] = system: MDA-MB-468 breast
# [34] = system: RXF 393 renal
# [35] = system: SF-268 CNS
# [36] = system: COLO 205 colon
# [37] = system: OVCAR-4 ovarian
# [38] = system: SF-539 CNS
# [39] = system: SN12C renal
# [40] = system: SR leukemia
# [41] = system: HT29 colon
# [42] = system: PC-3 prostate
# [43] = system: SK-MEL-2 melanoma
# [44] = system: KM12 colon
# [45] = system: HOP-62 NSCLC
# [46] = system: OVCAR-3 ovarian
# [47] = system: SW-620 colon
# [48] = system: CAKI-1 renal
# [49] = system: DU-145 prostate
# [50] = system: HL-60(TB) leukemia
# [51] = system: BT-549 breast
# [52] = system: A498 renal
# [53] = system: UO-31 renal
# [54] = system: SF-295 CNS
# [55] = system: NCI-H460 lung
# [56] = system: LOX IMVI melanoma
# [57] = system: OVCAR-5 ovarian
# [58] = system: MDA-MB-435
# [59] = system: NCI-H23 lung
structure (smiles),measurement,setting,value
CN(C)c1ccc(/C=C/c2n(Cc3ccc4ccccc4c3)c3ccccc3[n+]2Cc2ccc3ccccc3c2)cc1,GI50,[1],265 nM
same,TGI,[1],919 nM
same,GI50,[2],369 nM
same,TGI,[2],1530 nM
same,GI50,[3],166 nM
same,TGI,[3],1270 nM
same,GI50,[4],181 nM
same,TGI,[4],346 nM
same,GI50,[5],382 nM
same,TGI,[5],1530 nM
same,GI50,[6],287 nM
same,TGI,[6],1440 nM
same,GI50,[7],1320 nM
same,TGI,[7],3460 nM
same,GI50,[8],294 nM
same,TGI,[8],1500 nM
same,GI50,[9],270 nM
same,TGI,[9],1420 nM
same,GI50,[10],315 nM
same,TGI,[10],1410 nM
same,GI50,[11],218 nM
same,TGI,[11],1300 nM
same,GI50,[12],458 nM
same,TGI,[12],1740 nM
same,GI50,[13],281 nM
same,TGI,[13],1020 nM
same,GI50,[14],162 nM
same,TGI,[14],600 nM
same,GI50,[15],326 nM
same,TGI,[15],1210 nM
same,GI50,[16],240 nM
same,TGI,[16],1140 nM
same,GI50,[17],292 nM
same,TGI,[17],998 nM
same,GI50,[18],246 nM
same,TGI,[18],737 nM
same,GI50,[19],237 nM
same,TGI,[19],1130 nM
same,GI50,[20],325 nM
same,TGI,[20],1330 nM
same,GI50,[21],303 nM
same,TGI,[21],1660 nM
same,GI50,[22],281 nM
same,TGI,[22],1100 nM
same,GI50,[23],252 nM
same,TGI,[23],905 nM
same,GI50,[24],416 nM
same,TGI,[24],1680 nM
same,GI50,[25],317 nM
same,TGI,[25],1520 nM
same,GI50,[26],312 nM
same,TGI,[26],1350 nM
same,GI50,[27],257 nM
same,TGI,[27],1010 nM
same,GI50,[28],491 nM
same,TGI,[28],1710 nM
same,GI50,[29],249 nM
same,TGI,[29],740 nM
same,GI50,[30],280 nM
same,TGI,[30],1090 nM
same,GI50,[31],228 nM
same,TGI,[31],> 22900 nM
same,GI50,[32],296 nM
same,TGI,[32],1190 nM
same,GI50,[33],165 nM
same,TGI,[33],731 nM
same,GI50,[34],231 nM
same,TGI,[34],1020 nM
same,GI50,[35],383 nM
same,TGI,[35],1630 nM
same,GI50,[36],211 nM
same,TGI,[36],434 nM
same,GI50,[37],342 nM
same,TGI,[37],1650 nM
same,GI50,[38],346 nM
same,TGI,[38],1330 nM
same,GI50,[39],286 nM
same,TGI,[39],1070 nM
same,GI50,[40],399 nM
same,TGI,[40],2300 nM
same,GI50,[41],235 nM
same,TGI,[41],1340 nM
same,GI50,[42],250 nM
same,TGI,[42],1250 nM
same,GI50,[43],271 nM
same,TGI,[43],770 nM
same,GI50,[44],315 nM
same,TGI,[44],1300 nM
same,GI50,[45],351 nM
same,TGI,[45],1410 nM
same,GI50,[46],267 nM
same,TGI,[46],1250 nM
same,GI50,[47],319 nM
same,TGI,[47],1310 nM
same,GI50,[48],331 nM
same,TGI,[48],1310 nM
same,GI50,[49],354 nM
same,TGI,[49],1420 nM
same,GI50,[50],228 nM
same,TGI,[50],795 nM
same,GI50,[51],187 nM
same,TGI,[51],809 nM
same,GI50,[52],269 nM
same,TGI,[52],1150 nM
same,GI50,[53],530 nM
same,TGI,[53],1840 nM
same,GI50,[54],266 nM
same,TGI,[54],996 nM
same,GI50,[55],260 nM
same,TGI,[55],1130 nM
same,GI50,[56],269 nM
same,TGI,[56],999 nM
same,GI50,[57],360 nM
same,TGI,[57],1410 nM
same,GI50,[58],338 nM
same,TGI,[58],1240 nM
same,GI50,[59],250 nM
same,TGI,[59],752 nM

# — PubChem BioAssay (NCI)
